From ChEMBL document CHEMBL4811226, “Species Prioritization Based on Spectral Dissimilarity: A Case Study of Polyporoid Fungal Species” (J Nat Prod, 2021)
pIC50: −log10 of the molar value. Activity calls are given as the source filed them. The rule behind the calls is not given here.

system: HCT-116; test: Cytotoxicity against human HCT-116 cells assessed as reduction in cell viability measured after 48 hrs by MTS assay; format: functional, cell-based; settings: not given

**Q.** With `C=C1CC[C@H]2[C@](C)(COC(=O)[C@@H](CC(=O)O)[C@@H](OC[C@H]3C(=C)CC[C@H]4[C@](C)(COC(=O)[C@@H](CC(=O)O)[C@@H](OC[C@H]5C(=C)CC[C@H]6[C@](C)(CO)CCC[C@]56C)C(=O)OC)CCC[C@]34C)C(=O)OC)CCC[C@]2(C)[C@H]1CO[C@@H](C(=O)OC)[C@H](CC(=O)OC)C(=O)O` as the molecule, how does the Activity read?
**A.** inactive

**Q.** With `C=C1CC[C@H]2[C@@]3(C)CCC[C@]2(C)[C@H]1CO[C@@H](C(=O)OC)[C@H](CC(=O)O)C(=O)OC[C@]1(C)CCC[C@]2(C)[C@@H](CO[C@@H](C(=O)OC)[C@H](CC(=O)O)C(=O)OC3)C(=C)CC[C@@H]12` as the molecule, how does the Activity read?
**A.** inactive

**Q.** With `C=C1CC[C@H]2[C@](C)(COC(=O)[C@@H](CC(=O)O)[C@@H](OC[C@H]3C(=C)CC[C@H]4[C@](C)(CO)CCC[C@]34C)C(=O)OC)CCC[C@]2(C)[C@H]1CO[C@@H](C(=O)OC)[C@H](CC(=O)O)C(=O)OC` as the molecule, how does the Activity read?
**A.** inactive

**Q.** With `C=C1CC[C@H]2[C@@]3(C)CCC[C@]2(C)[C@H]1CO[C@@H](C(=O)OC)[C@H](CC(=O)O)C(=O)OC[C@]1(C)CCC[C@]2(C)[C@@H](CO[C@@H](C(=O)OC)[C@H](CC(=O)OC)C(=O)OC3)C(=C)CC[C@@H]12` as the molecule, how does the Activity read?
**A.** inactive

**Q.** For `C=C1CC[C@H]2C(C)(C)CCC[C@]2(C)[C@H]1CO[C@@H](C(=O)OC)[C@H](CC(=O)OC)C(=O)OC`, which Activity is on record?
**A.** inactive

**Q.** `C=C1CC[C@H]2[C@](C)(COC(=O)[C@@H](CC(=O)O)[C@@H](OC[C@H]3C(=C)CC[C@H]4[C@](C)(CO)CCC[C@]34C)C(=O)OC)CCC[C@]2(C)[C@H]1CO[C@@H](C(=O)OC)[C@H](CC(=O)O)C(=O)OC(C)C` was tested. Which Activity did it give?
**A.** inactive

**Q.** How did the Activity turn out when `C=C1CC[C@H]2[C@](C)(COC(=O)[C@@H](CC(=O)OC)[C@@H](OC[C@H]3C(=C)CC[C@H]4[C@](C)(CO)CCC[C@]34C)C(=O)OC)CCC[C@]2(C)[C@H]1CO[C@@H](C(=O)OC)[C@H](CC(=O)OC)C(=O)OC` was run?
**A.** inactive

same assay, conditions: HCT-116, 48 h

**Q.** How did the pIC50 turn out when `C=C1CC[C@H]2[C@](C)(COC(=O)[C@@H](CC(=O)O)[C@@H](OC[C@H]3C(=C)CC[C@H]4[C@](C)(CO)CCC[C@]34C)C(=O)OC)CCC[C@]2(C)[C@H]1CO[C@@H](C(=O)OC)[C@H](CC(=O)OC)C(=O)OC` was run?
**A.** 5.37

**Q.** With `C=C1CC[C@H]2[C@](C)(COC(=O)[C@@H](CC(=O)OC)[C@@H](OC[C@H]3C(=C)CC[C@H]4[C@](C)(CO)CCC[C@]34C)C(=O)OC)CCC[C@]2(C)[C@H]1CO[C@@H](C(=O)OC)[C@H](CC(=O)O)C(=O)OC` as the molecule, how does the pIC50 read?
**A.** 5.44
